Reference: PMC9401617 (Science Advances, 2022)
Positions count from the first letter of the chain named. Where two headings read alike, the source gives them in different places. Blank lines part the entries; values can stand above or below the compound they belong to.

Columns and labels:
hUHRF1 [1] = target: T1, hUHRF1 (Homo sapiens, UniProt Q96T88, D142A); assay: MST with labeled recombinant mutant protein; assay type: binding
T1 sequence (Q96T88 1-793 D142A): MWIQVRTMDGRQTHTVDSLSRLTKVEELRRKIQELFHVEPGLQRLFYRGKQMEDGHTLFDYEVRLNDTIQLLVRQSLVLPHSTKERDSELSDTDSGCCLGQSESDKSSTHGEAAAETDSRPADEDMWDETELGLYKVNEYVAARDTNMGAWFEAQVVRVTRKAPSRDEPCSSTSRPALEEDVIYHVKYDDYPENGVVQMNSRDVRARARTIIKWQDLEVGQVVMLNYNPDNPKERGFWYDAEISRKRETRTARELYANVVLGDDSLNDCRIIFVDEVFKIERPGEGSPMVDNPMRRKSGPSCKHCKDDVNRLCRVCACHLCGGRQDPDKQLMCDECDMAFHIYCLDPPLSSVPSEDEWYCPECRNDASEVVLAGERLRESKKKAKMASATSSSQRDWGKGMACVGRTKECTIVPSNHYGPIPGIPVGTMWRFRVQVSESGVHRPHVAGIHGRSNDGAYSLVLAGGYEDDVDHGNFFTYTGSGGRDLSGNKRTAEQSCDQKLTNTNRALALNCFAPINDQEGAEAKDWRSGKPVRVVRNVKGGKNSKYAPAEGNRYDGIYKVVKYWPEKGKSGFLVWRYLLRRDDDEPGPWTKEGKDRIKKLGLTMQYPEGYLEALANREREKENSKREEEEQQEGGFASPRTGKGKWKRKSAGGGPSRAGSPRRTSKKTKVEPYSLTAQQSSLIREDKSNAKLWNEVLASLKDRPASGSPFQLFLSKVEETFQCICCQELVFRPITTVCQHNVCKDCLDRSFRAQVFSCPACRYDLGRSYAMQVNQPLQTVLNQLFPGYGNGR

hUHRF1 [2] = target: T2, hUHRF1 (Homo sapiens, UniProt Q96T88); assay: MST with labeled recombinant protein; assay type: binding
T2 sequence (Q96T88 1-793): T1 sequence (Q96T88 1-793 D142A) with A142D

hUHRF1 [3] = target: T2, hUHRF1; assay: MST with labeled recombinant protein; assay type: binding; remark: listed apart in the source
hUHRF1 (Homo sapiens) = assay: EMSA
hUHRF1 [4] = target: T3, hUHRF1 (Homo sapiens, UniProt Q96T88, R649A); assay: MST with labeled recombinant mutant protein; assay type: binding
T3 sequence (Q96T88 1-793 R649A): T1 sequence (Q96T88 1-793 D142A) with A142D, R649A

Compound: CCCCCCCCCCCCCCCC(=O)OC[C@H](COP(=O)(O)O[C@H]1[C@H](O)[C@@H](OP(=O)(O)O)[C@H](O)[C@@H](O)[C@H]1O)OC(=O)CCCCCCCCCCCCCCC [D142*, di-C 16:0 PI5P]
Kd (hUHRF1 [1]): 60 µM

Compound: H3unmodified mononucleosome, 147 bp Widom 601
Kd (hUHRF1 (Homo sapiens)): 1.1 µM

Compound: CCCCCCCCCCCCCCCC(=O)OC[C@H](COP(=O)(O)O[C@H]1[C@H](O)[C@@H](OP(=O)(O)O)[C@H](O)[C@@H](O)[C@H]1O)OC(=O)CCCCCCCCCCCCCCC [R649*, di-C 16:0 PI5P]
Kd (hUHRF1 [4]): 3 µM

Further lines, results first:

Kd (hUHRF1 [2]): 5.5 µM
Compound: CCCCCCCCCCCCCCCC(=O)OC[C@H](COP(=O)(O)O[C@@H]1[C@H](O)[C@H](OP(=O)(O)O)[C@@H](O)[C@H](O)[C@H]1O)OC(=O)CCCCCCCCCCCCCCC [PI3P, di-C 16:0 PI3P]

Kd (hUHRF1 [3]): 4.7 µM
Compound: CCCCCCCCCCCCCCCC(=O)OC[C@H](COP(=O)(O)O[C@H]1[C@H](O)[C@@H](OP(=O)(O)O)[C@H](O)[C@@H](O)[C@H]1O)OC(=O)CCCCCCCCCCCCCCC [PI5P, di-C 16:0 PI5P]
